Results as given in patent US20240390382A1, “METHOD FOR TREATING CANCER” (THE CHILDREN'S MEDICAL CENTER CORPORATION, priority 2021, published 2024).
“Also recorded” adds a separate entry of the source.

Legend:
[1] = tested on: CTR9 edited CD34+HSPCs; experiment: HSC phenotyping (flow cytometry) of CTR9 edited CD34+ HSPCs, chemical rescue experiment; assay type: cell-based, human; details: inhibitor used at the concentration of IC50, vs DMSO
Method: (§1) HEK293T cells are cultured in DMEM supplemented with 10% FBS and 1× penicillin/streptomycin. Human CD34 HSPCs were purchased from Fred Hutchinson Cancer Institute and cultured in StemSpan serum free culture medium (StemCell Technologies) supplemented with 1×CC100, 2 mM L-glutamine, 100 ng/mL TPO, 1×UM171 and 1× penicillin/streptomycin. For RNP based CRISPR editing of CD34+HSPCs, chemically synthesized gRNA and Cas9 protein were mixed and set at room temperature for 10 mins to allow the formation of deliverable RNP. The assembled RNP complexes were then delivered into CD34+HSPCs by Lonza 4D Nucleofector with program DZ-100. 48-72 hrs after nucleofection, cells were harvested for genomic DNA and the edited region was PCR amplified and the editing efficiency was analyzed by the ICE analysis from Synthego. Edited CD34+HSPCs were allowed to expand in the culture medium and harvested twice at day 3 and day 6 post-nucleofection. Harvested cells were washed in cold PBS and stained by HSC phenotyping antibody cocktail, which is composed of Brilliant Violet 421 anti-CD34, APC-H7 anti-CD45RA, PE-Cy7 anti-CD90, BB700 anti-CD133, PE anti-EPCR and APC anti-ITGA3 in ice cold FACS buffer (PBS+2% FBS) at 1:60 for 30 minutes in ice. Stained cells were then analyzed by BD LSRII flow cytometer. For the chemical rescue experiment, CDK9 inhibitors (LDCO000067 and AZD4573) and the YEATS domain inhibitor of ENL/ILLT3 (SR-0813) were used at the concentration of IC50.

[2] = tested on: key leading edge genes (MLLT3 regulated) in CTR9 edited cells; experiment: qRT-PCR analysis of key leading edge genes in CTR9 edited cells; assay type: cell-based, human; details: two independent guides, inhibitor at the concentration of IC50, vs DMSO
Method: as §1, with “For the chemical rescue experiment, CDK9 inhibitors (LDCO000067 and AZD4573) and the YEATS domain inhibitor of ENL/ILLT3 (SR-0813) were used at the concentration of IC50.” left out
RNA from HSPCs was harvested by Qiagen RNeasy kit and quantified by nanodrop. […]

## O=C(NC1CCC1)c1ccc2nc(-c3cccc(NS(=O)(=O)NCCN4CCCCC4)c3)cn2c1 [SR-0813]
[1]; CTR9 edited CD34+ HSPCs
  CTR9-perturbation-mediated HSC expansion (partial loss of CTR9): rescues HSC expansion phenotype; also recorded: completely suppressed
[1]; primary human HSPCs
  impact on the bulk HSPC population (CD34+CD45RA-): without a major impact on the bulk HSPC population
  phenotypic LT- and ST-HSC expansion: suppression of phenotypic LT- and ST-HSC expansion occurred
[2]
  expression of key upregulated target genes (leading edge genes): downregulated many of the key upregulated target genes
